We go through 31 molecules from US12358915B2, “METTL3 inhibitory compounds” (STORM THERAPEUTICS LTD., priority 2019, dated 2025).

Structures can show the parent of a compound that is named as a salt. Where two headings read alike, the source gives them in different places.

For the test, the target named is T1, METTL3/14 (Homo sapiens, UniProt Q86U44).
T1 construct: The enzyme used was full-length his-tagged METTL3; His; made in house
Put plainly: METTL3/14 methyltransferase assay (METTL3_14 RFMS, RapidFire mass spectrometry).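 Also: recombinant His-tagged METTL3 with FLAG-tagged METTL14 from baculovirus, SAH product quantified by mass spectrometry against isotope-labelled internal standards, 60 min at room temperature, scaled between no-RNA and DMSO-only wells.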 The test is classed as biochemical. To be noted: read-out: METTL3_14 RFMS IC50.

[1] abbreviates: 5 nM METTL3/14, 0.2 μM RNA substrate, 0.5 μM SAM, lower limit of the assay IC50=5 nM, Compounds 63-265.
Where [2] appears, read: 5 nM METTL3/14, 0.2 μM RNA substrate, 0.5 μM SAM, lower limit of the assay IC50=5 nM, Compounds 1-62.
Where [3] appears, read: 5 nM METTL3/14, 0.2 μM RNA substrate, 0.5 μM SAM, lower limit of the assay IC50=5 nM, Compounds 266-351.

T1 sequence (Q86U44 whole entry): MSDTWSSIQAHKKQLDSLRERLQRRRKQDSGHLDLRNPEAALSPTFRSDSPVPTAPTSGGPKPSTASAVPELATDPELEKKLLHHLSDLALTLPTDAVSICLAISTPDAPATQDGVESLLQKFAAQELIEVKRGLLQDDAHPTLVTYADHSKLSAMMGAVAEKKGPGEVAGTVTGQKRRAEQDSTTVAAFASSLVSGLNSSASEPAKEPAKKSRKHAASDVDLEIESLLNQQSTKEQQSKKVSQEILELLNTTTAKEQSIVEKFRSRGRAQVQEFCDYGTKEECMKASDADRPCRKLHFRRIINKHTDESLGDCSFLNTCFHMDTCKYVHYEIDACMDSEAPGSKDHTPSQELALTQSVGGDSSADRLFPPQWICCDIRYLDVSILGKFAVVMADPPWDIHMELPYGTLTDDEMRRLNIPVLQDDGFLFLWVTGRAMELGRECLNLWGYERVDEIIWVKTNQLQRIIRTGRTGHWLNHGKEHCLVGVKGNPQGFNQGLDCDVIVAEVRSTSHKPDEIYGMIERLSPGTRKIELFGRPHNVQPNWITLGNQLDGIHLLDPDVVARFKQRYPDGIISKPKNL
T1 sequence (Q9HCE5 whole entry partner): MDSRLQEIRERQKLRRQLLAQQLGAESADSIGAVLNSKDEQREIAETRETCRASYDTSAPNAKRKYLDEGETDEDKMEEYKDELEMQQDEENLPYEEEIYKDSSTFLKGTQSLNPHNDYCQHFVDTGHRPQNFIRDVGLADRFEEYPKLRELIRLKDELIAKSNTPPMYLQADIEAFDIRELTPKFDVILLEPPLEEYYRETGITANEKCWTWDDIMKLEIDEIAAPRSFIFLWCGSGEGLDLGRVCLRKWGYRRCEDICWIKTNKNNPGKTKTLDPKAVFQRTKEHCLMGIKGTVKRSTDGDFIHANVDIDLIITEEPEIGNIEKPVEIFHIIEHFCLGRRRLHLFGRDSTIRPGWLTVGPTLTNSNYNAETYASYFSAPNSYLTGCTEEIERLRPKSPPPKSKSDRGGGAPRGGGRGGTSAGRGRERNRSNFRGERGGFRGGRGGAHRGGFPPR

The term IC50 denotes the concentration that gives 50% inhibition. In the case of `O=C(NCc1cn2cc(CNC34CC(C3)C4)ccc2n1)c1cc(=O)n2ccccc2n1` [Compound 116, N-({6-[({bicyclo[1.1.1]pentan-1-yl}amino)methyl]imidazo[1,2-a]pyridin-2-yl}methyl)-4-oxo-4H-pyrido[1,2-a] pyrimidine-2-carboxamide], the IC50 was found to be 280 nM.

As for `O=C(NCc1cn2cc(CNC(C3CC3)C3CC3)ccc2n1)c1cc(=O)n2ccccc2n1` [Compound 135, N-[(6-{[(dicyclopropyl-methyl)amino]methyl}imidazo [1,2-a]pyridin-2-yl)methyl]-4-oxo-4H-pyrido [1,2-a]pyrimidine-2-carboxamide], the 50% inhibitory concentration (IC50) under setting [1] stood at 18.3 nM.

In the case of `O=C(NCc1cn2cc(CN3C4CCC3CC4)ccc2n1)c1cc(=O)n2ccccc2n1` [Compound 169, N-{[6-({7-azabicyclo [2.2.1]heptan-7-yl}methyl)imidazo[1,2-a]pyridin-2-yl]methyl}-4-oxo-4H-pyrido[1,2-a]pyrimidine-2-carboxamide], the half-inhibitory concentration (IC50) under setting [1] came to 391 nM.

In the case of `O=C(NCc1cn2cc(C(F)(F)F)ccc2n1)c1cc(=O)n2ccccc2n1` [Compound 65, 4-oxo-N-{[6-(trifluoromethyl)imidazo[1,2-a]pyridin-2-yl]methyl}-4H-pyrido[1,2-a]pyrimidine-2-carboxamide], under setting [1], the IC50 was determined as 6600 nM.

With `O=C(NCc1cn2cc(CNCc3cccnc3)ccc2n1)c1cc(=O)n2ccccc2n1` [Compound 70, 4-oxo-N-{[6-({[(pyridin-3-yl)methyl]amino}methyl)imidazo [1,2-a]pyridin-2-yl]methyl}-4H-pyrido[1,2-a]pyrimidine-2-carboxamide], under setting [1], the IC50 is 143 nM.

For `O=C(NCc1cn2cc(CNCCc3cccnc3)ccc2n1)c1cc(=O)n2ccccc2n1` [Compound 107, 4-oxo-N-{[6-({[2-(pyridin-3-yl)ethyl]amino}methyl)imidazo[1,2-a]pyridin-2-yl]methyl}-4H-pyrido[1,2-a]pyrimidine-2-carboxamide], the IC50 under setting [1] was 143 nM.

Consider `O=C(NCc1cn2cc(CNC3CCCOC3)ccc2n1)c1cc(=O)n2ccccc2n1` (stereo not shown) [Compound 124, N-[(6-{[(oxan-3-yl)amino]methyl}imidazo[1,2-a]pyridin-2-yl)methyl]-4-oxo-4H-pyrido [1,2-a]pyrimidine-2-carboxamide], for which the half-maximal inhibitory concentration (IC50) under setting [1] was found to be 119 nM.

For `O=C(NCc1cn2cc(CNCC3CCC(F)(F)CC3)ccc2n1)c1cc(=O)n2ccccc2n1` [Compound 101, N-{[6-({[(4,4-difluorocyclohexyl)methyl]amino}methyl)imidazo [1,2-a]pyridin-2-yl]methyl}-4-oxo-4H-pyrido [1,2-a]pyrimidine-2-carboxamide], the IC50 under setting [1] turned out to be 18.1 nM.

For the molecule `O=C(NCc1cn2cc(CN3CCC(c4ccccc4)C3)ccc2n1)c1cc(=O)n2ccccc2n1` (stereo not shown) [Compound 97, 4-oxo-N-({6-[(3-phenylpyrrolidin-1-yl)methyl]imidazo [1,2-a]pyridin-2-yl}methyl)-4H-pyrido[1,2-a] pyrimidine-2-carboxamide], the IC50 under setting [1] came to 1020 nM.

With `O=C(NCc1cn2cc(CN3CCCC(C(F)(F)F)C3)ccc2n1)c1cc(=O)n2ccccc2n1` (stereo not shown) [Compound 142, 4-oxo-N-[(6-{[3-(trifluoromethyl)piperidin-1-yl]methyl}imidazo [1,2-a]pyridin-2-yl)methyl]-4H-pyrido[1,2-a] pyrimidine-2-carboxamide], the half-inhibitory concentration (IC50) under setting [1] was 48.8 nM.

Consider `CC(C)(C)OCCNCc1ccc2nc(CNC(=O)c3cc(=O)n4ccccc4n3)cn2c1` [Compound 152, N-{[6-({[2-(tert-butoxy)ethyl]amino}methyl)imidazo[1,2-a]pyridin-2-yl]methyl}-4-oxo-4H-pyrido[1,2-a] pyrimidine-2-carboxamide], for which the IC50 under setting [1] came out at 104 nM.

Consider `Cc1ccc2nc(CNC(=O)c3cc(=O)n4cc(Cl)ccc4n3)cn2c1` [Compound 21, 7-chloro-N-({6-methylimidazo[1,2-a]pyridin-2-yl}methyl)-4-oxo-4H-pyrido[1,2-a]pyrimidine-2-carboxamide], for which the IC50 under setting [2] is 3060 nM.

On to `C#Cc1cc(C(=O)NCc2cn3cc(C)ccc3n2)c2cn[nH]c2c1` [Compound 14, 6-ethynyl-N-({6-methylimidazo[1,2-a]pyridin-2-yl}methyl)-1H-indazole-4-carboxamide], for which the concentration for half-maximal inhibition (IC50) stood at 5900 nM.

Regarding `Cc1ccc2nc(C(CO)NC(=O)c3cccc4[nH]ncc34)cn2c1` (stereo not shown) [Compound 30, N-(2-hydroxy-1-{6-methylimidazo[1,2-a]pyridin-2-yl}ethyl)-1H-indazole-4-carboxamide], under setting [2], the IC50 stood at 8520 nM.

Regarding `OCc1ccc2nc(Cn3cc(-c4cc(F)cc5[nH]ncc45)nn3)cn2c1` [Example 317, [2-[[4-(6-fluoro-1H-indazol-4-yl)triazol-1-yl]methyl]imidazo[1,2-a]pyridin-6-yl]methanol], the half-inhibitory concentration (IC50) under setting [3] worked out at 462 nM.

With `O=C(NCc1cn2cc(CNC3CCCCC3)ccc2n1)c1cc(=O)n2ccccc2n1` [Compound 86, N-({6-[(cyclohexyl-amino)methyl]imidazo[1,2-a]pyridin-2-yl}methyl)-4-oxo-4H-pyrido[1,2-a]pyrimidine-2-carboxamide], under setting [1], the concentration for half-maximal inhibition (IC50) is 23.1 nM.

For the molecule `c1cc(-c2ncn(Cc3cn4cc(CNCC5CCC5)ccc4n3)n2)c2cn[nH]c2c1` [Example 341, N-(cyclobutylmethyl)-1-[2-[[3-(1H-indazol-4-yl)-1,2,4-triazol-1-yl]methyl]imidazo[1,2-a]pyridin-6-yl]methanamine], the 50% inhibitory concentration (IC50) under setting [3] worked out at 64.4 nM.

For `O=C(NCc1cn2cc(CN3CCCC(F)(F)C3)ccc2n1)c1cc(=O)n2ccccc2n1` [Compound 208, N-({6-[(3,3-difluoropiperidin-1-yl)methyl]imidazo[1,2-a]pyridin-2-yl}methyl)-4-oxo-4H-pyrido [1,2-a]pyrimidine-2-carboxamide], under setting [1], the IC50 was determined as 5730 nM.

Take `CC(=O)N(Cc1ccc2nc(CNC(=O)c3cc(=O)n4ccccc4n3)cn2c1)CC1CCC1` [Example 340, N-[(6-{[N-(cyclobutylmethyl)acetamido]methyl}imidazo[1,2-a]pyridin-2-yl)methyl]-4-oxo-4H-pyrido[1,2-a]pyrimidine-2-carboxamide]: the half-maximal inhibitory concentration (IC50) under setting [3] was 6810 nM.

`O=C(NCc1ccccc1)c1ccc2nc(CNC(=O)c3cc(=O)n4ccccc4n3)cn2c1` [Compound 68, N-benzyl-2-[({4-oxo-4H-pyrido[1,2-a]pyrimidin-2-yl}formamido)methyl]imidazo [1,2-a]pyridine-6-carboxamide]: the IC50 under setting [1] came out at 5090 nM.

For `CC1(C)CCN(Cc2ccc3nc(Cn4cc(-c5cc(Br)cc6[nH]ncc56)nn4)cn3c2)CC1` [Example 227, 6-bromo-4-[1-({6-[(4,4-dimethylpiperidin-1-yl)methyl]imidazo[1,2-a]pyridin-2-yl}methyl)-1H-1,2,3-triazol-4-yl]-1H-indazole], the half-maximal inhibitory concentration (IC50) under setting [1] was found to be 7.9 nM.

On to `CC1(C)CCN(Cc2ccc3nc(CNC(=O)c4cc(OCCOCCN)cc5[nH]ncc45)cn3c2)CC1` [Example 312, 6-[2-(2-aminoethoxy)ethoxy]-N-[[6-[(4,4-dimethyl-1-piperidyl)methyl]imidazo[1,2-a]pyridin-2-yl]methyl]-1H-indazole-4-carboxamide trihydrochloride], for which the IC50 under setting [3] came out at 52.1 nM.

For `CC(C)(C)[C@H]1COC[C@@H](c2ccc3nc(CNC(=O)c4cc(=O)n5ccccc5n4)cn3c2)N1` [Example 228, N-({6-[(3R,5S)-5-tert-butylmorpholin-3-yl]imidazo[1,2-a]pyridin-2-yl}methyl)-4-oxo-4H-pyrido[1,2-a]pyrimidine-2-carboxamide], under setting [1], the IC50 is 239 nM.

As to `Cc1ccc2nc(Cc3nnc(-c4cccc5[nH]ncc45)s3)cn2c1` [Compound 66, 4-[5-({6-methylimidazo[1,2-a]pyridin-2-yl}methyl)-1,3,4-thiadiazol-2-yl]-1H-indazole], the concentration for half-maximal inhibition (IC50) under setting [1] was found to be 1350 nM.

Turning to `O=C(NCc1cn2ccc(CNCCc3ccccc3)cc2n1)c1cc(=O)n2ccccc2n1` [Compound 243, 4-oxo-N-[(7-{[(2-phenylethyl)amino]methyl}imidazo[1,2-a]pyridin-2-yl)methyl]-4H-pyrido[1,2-a]pyrimidine-2-carboxamide], the half-maximal inhibitory concentration (IC50) was determined as 1450 nM.

For the molecule `O=C(NCc1cn2cc(CN3CCC(F)CC3)ccc2n1)c1cc(=O)n2ccccc2n1` [Compound 144, N-({6-[(4-fluoropiperidin-1-yl)methyl]imidazo[1,2-a]pyridin-2-yl}methyl)-4-oxo-4H-pyrido[1,2-a]pyrimidine-2-carboxamide], the half-inhibitory concentration (IC50) under setting [1] worked out at 59.7 nM.

In the case of `O=C(NCc1cn2cc(CNCCO)ccc2n1)c1cc(=O)n2ccccc2n1` [Compound 52, N-[(6-{[(2-hydroxyethyl)amino]methyl}imidazo[1,2-a]pyridin-2-yl)methyl]-4-oxo-4H-pyrido[1,2-a]pyrimidine-2-carboxamide], under setting [2], the IC50 was determined as 267 nM.

With `O=C(NCc1cn2cc(CNCC3COC3)ccc2n1)c1cc(=O)n2ccccc2n1` [Compound 111, N-{[6-({[(oxetan-3-yl)methyl]amino}methyl)imidazo[1,2-a]pyridin-2-yl]methyl}-4-oxo-4H-pyrido[1,2-a] pyrimidine-2-carboxamide], the half-maximal inhibitory concentration (IC50) under setting [1] turned out to be 109 nM.

On to `CC(C)(C)CNCc1ccc2nc(Cn3cc(-c4cc(Cl)cc5[nH]ncc45)nn3)cn2c1` [Example 304, N-[[2-[[4-(6-chloro-1H-indazol-4-yl)triazol-1-yl]methyl]imidazo[1,2-a]pyridin-6-yl]methyl]-2,2-dimethyl-propan-1-amine], for which the IC50 under setting [3] is 6.1 nM.

Turning to `Cc1ccc2nc(Cn3cc(-c4cccc5[nH]nc(N)c45)nn3)cn2c1` [Example 272, 4-[1-[(6-methylimidazo[1,2-a]pyridin-2-yl)methyl]triazol-4-yl]-1H-indazol-3-amine], the half-inhibitory concentration (IC50) under setting [3] came to 9020 nM.

`O=C(NCc1cn2cc(C(O)c3ccccc3)ccc2n1)c1cc(=O)n2ccccc2n1` (stereo not shown) [Compound 56, N-({6-[hydroxy(phenyl)methyl]imidazo[1,2-a]pyridin-2-yl}methyl)-4-oxo-4H-pyrido[1,2-a]pyrimidine-2-carboxamide]: the IC50 under setting [2] was determined as 945 nM.
